# Measured values reported in patent publication US20230248029A1, “Single-Serving Beverage Ingredient Containers Comprising Nanoparticulate Cannabidiol” (priority 2022, published 2023).
# How the values were obtained:
# [1] = CBD extraction in brewed coffee beverage, pure CBD powder (HPLC); assay type: physicochemical
# Source text: To test the extraction efficiency of pure CBD powder in a coffee brewing process, the foil lids of each of several single-serving coffee containers adapted for use in a Keurig single-serving coffee machine were peeled back, a small depression was made in the top of the coffee grounds, and a measured quantity of CBD powder was placed in the depression. The foil lids were then resealed, and the containers were shaken for 30 seconds to disperse the CBD powder throughout the mass of coffee grounds. Each of the containers was then used in a Keurig single-serving coffee machine to brew either a 160 mL coffee beverage or a 300 mL coffee beverage. Mixing the CBD powder throughout the coffee grounds allowed the CBD to melt as hot water flowed downward from the top of the container and through the mass of coffee grounds during the coffee brewing process; relative to simply disposing the CBD powder in the bottom of the container, this reduces the amount of CBD extracted into the coffee beverage but improves the extent to which the CBD is mixed and dispersed with other chemical components extracted with the coffee, thereby inhibiting the formation of a CBD film in the brewed coffee beverage.
# For each brewed coffee beverage, the beverage was poured into three separate bottles; a small sample was taken from each bottle and diluted in 10× (by volume) ethanol. This mixture was then shaken and centrifuged to remove coffee components and dissolve the CBD. The supernatant was removed from the centrifuged samples and measured by high-performance liquid chromatography using an Agilent Zorbax Eclipse XDB-C8 column. The mobile phase was a 1 mL/min gradient of 70:30 (vol/vol) acetonitrile:water to 80:20 (vol/vol) acetonitrile:water over 8 minutes. A 20 μL injection was used and the column was kept at 25° C. Absorbance was measured at 210 nm with a 5 nm bandwidth.
# [2] = CBD film formation on the surface of the brewed coffee beverage (visual); assay type: physicochemical; conditions: Keurig-brewed coffee beverage, visual (FIG. 5A, 5B)
# Source text: This variability is expected due to the difference in particle size between the CBD powder and the ground coffee, which makes uniform dispersion of the CBD powder throughout the coffee grounds difficult.
# Without wishing to be bound by any particular theory, the present inventors hypothesize that more concentrated droplets may be effective to increase the CBD extraction from F68 formulations.
# This is because, in the use of Keurig single-serving coffee machines (and in conventional drip coffee makers), the water used is at or near its boiling point, which in any event is much higher than the melting point of CBD (66° C.), and the colloid droplets therefore cannot resist these high temperatures, causing coalescence of the CBD. In some embodiments, therefore, it may be desirable to brew the coffee beverage at a lower temperature, or to brew a conventional (non-CBD-containing) coffee beverage at typical near-boiling temperatures and then mix in a CBD colloid as described herein after the coffee beverage has cooled to below the melting point of CBD (but still at or above the temperature at which the consumer desires to consume the coffee, which on average is about 60° C.); it is to be expressly understood that such embodiments are within the scope of the present disclosure.
# [3] = oral; cited from earlier work
# [4] = CBD mass 50 mg, beverage volume 160 mL
# [5] = CBD mass 50 mg, beverage volume 300 mL
# [6] = CBD mass 75 mg, beverage volume 160 mL
# [7] = CBD mass 75 mg, beverage volume 300 mL
# [8] = CBD mass 100 mg, beverage volume 160 mL
# [9] = CBD mass 100 mg, beverage volume 300 mL
smiles,measurement,setting,value
"C=C(C)[C@@H]1CCC(C)=C[C@H]1c1c(O)cc(CCCCC)cc1O [CBD, cannabidiol]",CBD extraction,[1]; [4],22.0 ± 9.6%
same,CBD in beverage,[1]; [4],8.9 ± 4.4 mg
same,CBD extraction,[1]; [5],42.1 ± 10.0%
same,CBD in beverage,[1]; [5],20.3 ± 5.9 mg
same,CBD extraction,[1]; [6],8.3 ± 6.2%
same,CBD in beverage,[1]; [6],11.3 ± 4.8 mg
same,CBD extraction,[1]; [7],15.8 ± 5.2%
same,CBD in beverage,[1]; [7],11.9 ± 3.9 mg
same,CBD extraction,[1]; [8],21.0 ± 14.8%
same,CBD in beverage,[1]; [8],21.0 ± 14.8 mg
same,CBD extraction,[1]; [9],11.9 ± 3.5%
same,CBD in beverage,[1]; [9],11.9 ± 3.5 mg
same,CBD film formation in the brewed coffee beverage,[2],"large, thick films"
same,Maximum theoretical bioavailability of orally administered CBD,[3],19%
